Activity calls are given as the source filed them.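 The calls were made as follows: active = compounds raising the signal whose fitted half-maximal concentration is at or below their top tested dose (cut at about 25 µM in these data); inconclusive = flat fit at 30 to 70% activity, or a poor fit; inactive = the rest.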
system: INS-1E rat beta cells, no cytokines, CellTiter-Glo ATP, 48 h; experiment: cytokine-free beta-cell viability effect – INS-1E rat cells, ATP luminescence, cherry pick, counter-screen for beta-cell apoptosis protection project, dose response (AID 463229)

With `Cc1c(C(=O)N(Cc2ccccc2)C(C)C)oc2ccc(S(=O)(=O)N3CCOCC3)cc12` as the compound, how does the AC50 read?
The AC50 was > 26 µM (inactive).

With `Cc1ccc(N=Nc2c(O)ccc3n[nH]nc23)cc1` as the compound, how does the AC50 read?
The AC50 was 4.37 µM.

Which AC50 does the source give for `COc1ccc(C(=O)N/N=C/c2sc3ccccc3c2O)cc1` here?
The AC50 was 7.83 µM.

Which AC50 does the source give for `COc1cc(C(=O)N/N=C(\C)c2ccccn2)cc(OC)c1OC` here?
Its AC50 is 10.6 µM.

How did the AC50 turn out when `CN(C)CCCN(C(=O)c1ccc(S(=O)(=O)N(C)Cc2ccccc2)cc1)c1nc2cc3c(cc2s1)OCO3` was run?
Its AC50 is 15.9 µM.

With `c1ccc(-c2cccc(-c3ccccn3)n2)nc1` as the compound, how does the AC50 read?
Its AC50 is 1.24 µM.

Which AC50 does the source give for `C/C(=N\NC(=O)c1ccc(Cl)cc1)c1ccccn1` here?
The AC50 was 1.62 µM.

For `Cc1cc(C)cc(NC(=O)/C(C#N)=C/c2cn(CC(=O)NCc3ccco3)c3ccccc23)c1`, which AC50 is on record?
The AC50 was 5.06 µM.

For `Cc1ccc(NC(=O)Cc2nn(C)c(=O)c3ccccc23)cc1F`, which AC50 is on record?
The AC50 was 6.97 µM.

How did the AC50 turn out when `O=C(OCn1ncc(Br)c(Br)c1=O)c1ccccc1Cl` was run?
Its AC50 is 4.55 µM.

How did the AC50 turn out when `CCC(O)C1CCN(C(=O)c2cc(COc3ccc4ncccc4c3)on2)CC1` (configuration not stated) was run?
The AC50 was 5.52 µM.

With `CCS(=O)(=O)c1ccc(OC)c(N=Nc2ccc(O)c3ncccc23)c1` as the compound, how does the AC50 read?
The AC50 was 9.84 µM.

For `Cn1nc([N+](=O)[O-])nc1Sc1cccc2cccnc12`, which AC50 is on record?
The AC50 was 7.81 µM.

Which AC50 does the source give for `Oc1c(C(Nc2ccccn2)c2ccccn2)ccc2cccnc12` (configuration not stated) here?
Its AC50 is 6.16 µM.

`Cc1[nH]n(-c2ccccc2)c(=O)c1N=Nc1c(O)cc(S(=O)(=O)N(C)C)c2ccccc12` was tested. Which AC50 did it give?
The AC50 was 3.72 µM.

With `CCOc1ccc(N=Cc2c(C)[nH]n(-c3nc4ccccc4[nH]3)c2=O)cc1` as the compound, how does the AC50 read?
Its AC50 is 2.83 µM.

`O=C(Nc1ccc(Cl)cc1)Nc1nnc(-c2ccncc2)s1` was tested. Which AC50 did it give?
The AC50 was 4.78 µM.

With `N/C(=N\OC(=O)c1cccc(Cn2cc(C(F)(F)F)ccc2=O)c1)c1ccc(Cl)cc1` as the compound, how does the AC50 read?
The AC50 was 8.25 µM.

How did the AC50 turn out when `Cc1ccc(-c2nc(N/N=C/c3cccnc3)c3ccccc3n2)cc1` was run?
Its AC50 is 9.02 µM.

With `Cc1nn(Cc2c(Cl)cccc2Cl)c(C)c1NC(=O)c1cn(-c2ccccc2)nc1-c1ccccc1` as the compound, how does the AC50 read?
Its AC50 is 4.24 µM.

With `NC(N)=N/N=C/c1cn(-c2ccccc2)nc1-c1cccs1` as the compound, how does the AC50 read?
The AC50 was 14.2 µM.

How did the AC50 turn out when `CCN1CCN(Cc2ccc(NC(=O)c3cc(NC(=O)c4cnn(-c5ccccc5)c4N)cc(OC)c3)cc2C(F)(F)F)CC1` was run?
Its AC50 is 15.3 µM.

How did the AC50 turn out when `Cc1ccccc1-[n+]1c(-c2ccccc2)cc(-c2ccccc2)cc1-c1ccccc1` was run?
The AC50 was 2.2 µM.

With `O=Nc1c(O)c2ccccc2c2ccccc12` as the compound, how does the AC50 read?
Its AC50 is 7.61 µM.

Which AC50 does the source give for `O=C(NCc1cccnc1)/C(=C/c1ccc(-c2cccc(Cl)c2)o1)S(=O)(=O)c1ccccc1` here?
The AC50 was 4.93 µM.

`Cc1cccc(Nc2nc(N)c([N+](=O)[O-])c(N3CC(C)CC(C)C3)n2)c1` (configuration not stated) was tested. Which AC50 did it give?
Its AC50 is 14.8 µM.

With `CCCNC(=O)c1ccc2c(=O)c(O)c(-c3cccc(Br)c3)[nH]c2c1` as the compound, how does the AC50 read?
Its AC50 is 4.63 µM.

`O=S(=O)(c1ccc(NC(=S)NCc2cccnc2)cc1)N1CCCCC1` was tested. Which AC50 did it give?
The AC50 was 1.62 µM.

Which AC50 does the source give for `COc1cc(-c2nc3ccc(C)cn3c2NCc2ccccc2)ccc1SC1CCCCC1` here?
The AC50 was 5.49 µM.

Which AC50 does the source give for `Cc1ccc(C)c(NC(=S)NC(NC(=O)Cc2cccc3ccccc23)C(Cl)(Cl)Cl)c1` (configuration not stated) here?
Its AC50 is 5.67 µM.

How did the AC50 turn out when `c1ccc(CNc2nc(-c3ccccn3)nc3ccccc23)cc1` was run?
The AC50 was 7.68 µM.

For `CCCCNc1c(-c2cccc(-c3ccc(OC)cc3)c2)nc2ccc(C)cn12`, which AC50 is on record?
Its AC50 is 7.32 µM.

How did the AC50 turn out when `Cc1cccc2nc(CSc3nc4[nH]ncc4c(=O)n3-c3cccc(Cl)c3)cc(=O)n12` was run?
Its AC50 is 7.35 µM.

For `CCc1ccc(S(=O)(=O)/N=C2\C=C(Nc3ccc(C(=O)O)cc3)C(=O)c3ccccc32)cc1`, which AC50 is on record?
The AC50 was 14.7 µM.

For `N#CC1=C(N)Oc2c(ccc3cccnc23)C1c1ccccc1` (configuration not stated), which AC50 is on record?
The AC50 was 19.3 µM.

`COc1ccc(/C=N/Nc2cc(C)nc3ccc(OC)cc23)c(OC)c1` was tested. Which AC50 did it give?
The AC50 was 13.5 µM.

How did the AC50 turn out when `CCc1ccc(OC)c(S(=O)(=O)Nc2ccc(Cc3ccncc3)cc2)c1` was run?
The AC50 was 6.36 µM.

How did the AC50 turn out when `CCc1cc(CNC(=O)c2ccc3nc(Cc4ccc(OC)c(OC)c4)oc3c2)on1` was run?
Its AC50 is 9.39 µM.

How did the AC50 turn out when `CCCNC(=O)c1ccc2c(=O)c(O)c(-c3ccc(C)cc3)[nH]c2c1` was run?
Its AC50 is 8.71 µM.

With `O=C(Nc1cccnc1)c1ccc([N+](=O)[O-])s1` as the compound, how does the AC50 read?
Its AC50 is 15.3 µM.

Which AC50 does the source give for `Cc1ccc(C(=O)N/C(=C\c2ccc(-c3ccc(Cl)cc3)o2)C(=O)NCCCN(C)C)cc1` here?
Its AC50 is 10.9 µM.

`Nc1c(Cl)ncnc1N/N=C/c1ccc2ccccc2n1` was tested. Which AC50 did it give?
The AC50 was 4.38 µM.

`CCN1/C(=C/C(C)=C/c2sc3ccccc3[n+]2CC)Sc2ccccc21` was tested. Which AC50 did it give?
The AC50 was < 0.195 µM.

Which AC50 does the source give for `CCCCCCCCCCOC(=O)Cn1c(COc2ccccc2C)[n+](C)c2ccccc21` here?
Its AC50 is 3.22 µM.

With `COc1ccc(OCc2n(CC(=O)OC3CC(C)CCC3C(C)C)c3ccccc3[n+]2C)cc1` (configuration not stated) as the compound, how does the AC50 read?
Its AC50 is 4.3 µM.

For `Cc1sc2ncnc(NCC(O)c3ccccc3)c2c1C` (configuration not stated), which AC50 is on record?
Its AC50 is 10.5 µM.

Which AC50 does the source give for `O=[N+]([O-])c1cccnc1N/N=C/c1ccccc1O` here?
Its AC50 is 5.45 µM.

With `Cc1cc(N2CCN(c3nc4ccccc4s3)CC2)n2ncnc2n1` as the compound, how does the AC50 read?
The AC50 was 7.32 µM.

With `O=[N+]([O-])c1cc(C(F)(F)F)ccc1NCCCCNS(=O)(=O)c1ccc(Cl)cc1` as the compound, how does the AC50 read?
The AC50 was 6.94 µM.

For `Oc1ccc(Nc2nc(-c3ccc4ccccc4c3)cs2)cc1`, which AC50 is on record?
The AC50 was 7.98 µM.

With `CC(C)OCCCNc1ncnc2c1[nH]c1ccc(F)cc12` as the compound, how does the AC50 read?
The AC50 was 2.46 µM.

For `O=C(CN1CC[n+]2c(-c3cccs3)csc21)c1ccc(-c2ccccc2)cc1`, which AC50 is on record?
The AC50 was 2.34 µM.

`CCc1ccc(Nc2n[n+](-c3ccccc3)c(-c3c(Cl)cccc3Cl)s2)cc1` was tested. Which AC50 did it give?
The AC50 was 4.08 µM.

For `Cc1ccc(-c2ccc(/C=C3\C(=O)ON=C3c3ccccc3)o2)c([N+](=O)[O-])c1`, which AC50 is on record?
The AC50 was 6.77 µM.

`Cc1ccc(-n2ncc3c2CCCC3NC(=O)c2ocnc2C)cc1C` (configuration not stated) was tested. Which AC50 did it give?
Its AC50 is 6.97 µM.

Which AC50 does the source give for `Cc1cc(F)ccc1S(=O)(=O)Nc1ccccc1C(=O)Nc1ccccc1-c1nc2ccccc2[nH]1` here?
The AC50 was 7.72 µM.

Which AC50 does the source give for `CC1(C)CC(N2CCN(c3ccccc3)CC2)=CC(=[N+]2CCCC2)C1` here?
Its AC50 is 1.79 µM.

`COc1ccccc1N(CC(=O)N/N=C/c1c(O)ccc2ccccc12)S(C)(=O)=O` was tested. Which AC50 did it give?
The AC50 was 7.54 µM.

With `CCN(CC)c1ccc(/C=N/NC(=O)c2cccc(S(=O)(=O)N3CCOCC3)c2)c(O)c1` as the compound, how does the AC50 read?
Its AC50 is 2.12 µM.

How did the AC50 turn out when `Cc1ccc(S(=O)(=O)/N=C2/C=C(Sc3ncn[nH]3)C(=O)c3ccccc32)cc1` was run?
Its AC50 is 8.08 µM.

With `COc1ccc(CC(=O)Nc2cccc(-c3nnc(-c4cccc(C)c4)o3)c2)cc1OC` as the compound, how does the AC50 read?
Its AC50 is 3.46 µM.

How did the AC50 turn out when `Cn1nccc1C(=O)NC1CCCc2c1cnn2-c1ccccc1F` (configuration not stated) was run?
Its AC50 is 3.16 µM.

`COc1ccc(C)cc1Nc1n[n+](-c2ccccc2)c(-c2ccc(OC)c(OC)c2OC)s1` was tested. Which AC50 did it give?
Its AC50 is 14.5 µM.

How did the AC50 turn out when `CCCCNC1=CC(=O)C(=O)c2ccccc21` was run?
Its AC50 is 7.75 µM.

`COc1cccc(/C=N/Nc2snc(SC)c2C#N)c1O` was tested. Which AC50 did it give?
The AC50 was 5.12 µM.

How did the AC50 turn out when `N#CCSc1nc2ccccc2c2nc3ccccc3n12` was run?
The AC50 was 10.3 µM.

With `COc1ccc2c(c1)C(=O)[C@@H](O)[C@H](c1ccc(OC)c(Br)c1)O2` as the compound, how does the AC50 read?
The AC50 was 10.4 µM.

For `CC1=C(CC(=O)c2ccc(Cl)cc2)C(=O)c2ccccc2C1=O`, which AC50 is on record?
The AC50 was 26.6 µM.

With `CCC[C@@H](CN1CCC[C@H]1CN1C(N)=NC[C@@H]1Cc1ccccc1)N1C[C@@H]([C@H](C)CC)N(CCCC2CCCC2)C1=N` as the compound, how does the AC50 read?
Its AC50 is 7.72 µM.

`CCN(CC)C(=O)c1cc([N+](=O)[O-])cc2c1-c1ccc([N+](=O)[O-])cc1C2=C(C#N)C#N` was tested. Which AC50 did it give?
The AC50 was 9.06 µM.

`COc1ccc2cc1Oc1ccc(cc1)C[C@H]1c3cc(c(OC)cc3CCN1C)Oc1c(O)c(OC)cc3c1[C@H](C2)N(C)CC3` was tested. Which AC50 did it give?
Its AC50 is 7.07 µM.

How did the AC50 turn out when `Oc1ccccc1/C=N/Nc1nc2ccccc2o1` was run?
The AC50 was 4.62 µM.

With `Cn1nccc1C(=O)N/N=C/c1c(O)ccc2ccccc12` as the compound, how does the AC50 read?
The AC50 was 3.54 µM.

Which AC50 does the source give for `COc1ccc(C2=NNC(=Nc3cc(S(=O)(=O)N(C)C)ccc3C)SC2)c(OC)c1` here?
The AC50 was 3.06 µM.

`CC(=O)c1cccc(NS(=O)(=O)c2ccc(N/C=C/C(=O)c3ccc(F)cc3)cc2)c1` was tested. Which AC50 did it give?
Its AC50 is 5.02 µM.

`Cc1cccc(NC(=S)N/N=C/c2ccc([N+](=O)[O-])s2)c1` was tested. Which AC50 did it give?
Its AC50 is 7.67 µM.

With `O=C(NC(=S)NNC(=O)c1cnccn1)c1ccc(F)cc1` as the compound, how does the AC50 read?
Its AC50 is 3.48 µM.

Source: PubChem BioAssay AID463229 (Broad Institute, 2010)
